Entries after “also recorded” stand apart in the source; their conditions may differ.
Legend:
[1] = system: Mycobacterium tuberculosis (Mtb); details: compared with natural tunicamycin; cited from earlier work
[2] = system: Mycobacterium avium subsp. paratuberculosis (MAP) strain K-10; assay: Antibiotic disc assay on agar plates, MAP strain K-10; details: antibiotic discs on the plate for 13 days, FIG. 15C
[3] = system: Mycobacterium smegmatis biofilm; assay: Microtiter plate bioassay, biofilm formation (MBFC); assay type: cell-based; details: M. smegmatis grown in TYG for 6 days at 37° C., FIG. 16
Procedure: (§1) In each plate, left two columns are treated with DMSO, center two columns are treated with tunicamycin; right two panels are treated with TunR2. The concentration in μg/mL is indicated on the right. Arrows show the concentration at which there is mycobacterial growth inhibition (MIC), or biofilm formation is blocked (MBFC).
(§2) Tunicamycins are known to inhibit the biosynthesis of bacterial cell wall, for example by blocking the peptidoglycan and teichoic layers. The Mycobacterium genus is characterized by unusual and complex cell walls composed of three distinct layers, peptidoglycan (PG), arabinogalactan (AG) and mycolic acids (MA), which are well characterized targets for antimycobacterial drugs (K A Abrahams & G S Besra, 2018, “Mycobacterial cell wall biosynthesis: a multifaceted antibiotic target,” Parasitology 145: 116-133). The MA and AG are also components of mycobacterial biofilms, an extracellular matrix with various pathogenic functions.

Mycobacterium smegmatis = assay: Microtiter plate bioassay, mycobacterial growth inhibition (MIC); assay type: cell-based; details: M. smegmatis grown in TYG for 6 days at 37° C., FIG. 16
Procedure: as §1
The inventors have shown that tunicamycins (including the modified TunR1, TunR2, and OAT-type tunicamycins) have potent antimycobacterial activity (for example, MIC 0.5 μg·mL^−1 for TunR2 against M. smegmatis, as shown in FIG. 16.
as §2

[4] = system: cultured mammalian cell lines (HEK293, HepG2, Raji cells); details: cell line not given; cited from earlier work

Compound	activity on MAP strain K-10 [2]	further results
CCCCCCCCC(=O)N[C@H]1[C@H](O[C@H]2O[C@H](CO)[C@@H](O)[C@H](O)[C@H]2NC(=O)CCCCCCCC)O[C@H](C[C@@H](O)[C@H]2O[C@@H](n3ccc(=O)[nH]c3=O)[C@H](O)[C@@H]2O)[C@H](O)[C@@H]1O [Tun-9,9]		potency relative to natural tunicamycin against Mtb [1]: 5 times
CC1(C)S[C@@H]2[C@H](NC(=O)C(C(=O)O)c3ccccc3)C(=O)N2[C@H]1C(=O)O (stereo partly shown) [carbenicillin]	resistant	activity on MAP strain K-10 ([2]; listed as Carbenicillin): low inhibitions at high concentrations
CO/N=C(\C(=O)N[C@@H]1C(=O)N2C(C(=O)[O-])=C(C[n+]3cccc4c3CCCC4)CS[C@H]12)c1csc(N)n1 [cefquinome]	resistant; also recorded: low inhibitions at high concentrations	
CCCCCCCCC1=C(CCCCCCCC(=O)O)C1 [sterulic acid]	resistant	
CC(C)CCOc1ccc(NC(=S)Nc2ccc(OCCC(C)C)cc2)cc1 [thiocarlide]	resistant	
tunicamycin	perform well	Minimal Biofilm Formation Concentration, MBFC [3]: 1 µg/mL; MIC (mycobacterial growth inhibition) (Mycobacterium smegmatis): 2 µg/mL; LD50 [4]: > 400 µg/mL

— patent US12245589B2, “Omega-alicyclic tunicamycins and analogs” (priority 2022, dated 2025)
